Measurements as given in patent US20250066290A1, “DHODH INHIBITORS CONTAINING A CARBOXYLIC ACID BIOISOSTERE” (IMMUNIC AG, priority 2021, published 2025).
Where two headings read alike, the source gives them in different places.

Key:
[1] = target: N-terminally truncated recombinant hDHODH enzyme (Homo sapiens, UniProt Q02127); experiment: biochemical; type: biochemical
Description: Briefly, the hDHODH concentration was adjusted in a way that an average slope of approximately 0.2 AU/min served as the positive control (e.g. without inhibitor). The standard assay mixture contained 60 μM 2,6-dichloroindophenol, 50 μM decylubiquinone and 100 μM dihydroorotate. The hDHODH enzyme with or without at least six different concentrations of the compounds was added and measurements were performed in 50 mM TrisHCl, 150 mM KCl and 0.1% Triton X-100 at pH 8.0 and at 30° C. The reaction was started by adding dihydroorotate and measuring the absorption at 600 nm for 2 min. For the determination of the IC50 values, each data point was recorded in triplicate. […].

SARS-CoV-2 = SARS-CoV-2 viral replication (YFP) assay; type: cell-based; conditions: Severe acute respiratory syndrome coronavirus 2, read-out: EC50 range
[2] = human DHODH assay, read-out: IC50 range

Sequence of N-terminally truncated recombinant hDHODH enzyme (Q02127 whole entry, looked up, the tested form may be a part): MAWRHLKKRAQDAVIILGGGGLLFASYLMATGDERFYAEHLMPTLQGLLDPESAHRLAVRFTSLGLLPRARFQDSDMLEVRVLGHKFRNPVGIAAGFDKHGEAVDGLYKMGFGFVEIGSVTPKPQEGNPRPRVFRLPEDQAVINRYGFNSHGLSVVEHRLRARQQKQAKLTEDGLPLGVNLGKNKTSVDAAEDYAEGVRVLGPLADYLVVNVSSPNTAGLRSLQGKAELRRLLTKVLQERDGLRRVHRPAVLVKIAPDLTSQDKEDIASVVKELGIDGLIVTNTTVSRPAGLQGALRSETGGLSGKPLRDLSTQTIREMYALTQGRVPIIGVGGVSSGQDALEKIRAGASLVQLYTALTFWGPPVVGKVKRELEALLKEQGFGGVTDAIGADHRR

Row | Compound | IC50 [1, 2] [nM] | EC50 (SARS-CoV-2) [nM] | IC50 [1] [nM] | IC50 ([1]; matched pair comparison, read-out: DHODH IC50) [nM]
1 | [2H]C([2H])([2H])Oc1cccc(-c2c(F)c(F)c(NC(=O)c3occc3C(=O)NOC)c(F)c2F)c1 [9/8] | < 100 | < 1000 |  | 
2 | [2H]C([2H])([2H])Oc1cccc(-c2cc(F)c(NC(=O)C3=C(C(=O)NS(=O)(=O)C(F)F)CCC3)c(F)c2)c1 [1/3] |  | 25000 to 50000 | 1000 to 10000 | 
3 | [2H]C([2H])([2H])Oc1cccc(-c2cc(F)c(NC(=O)C3=C(C(=O)NOC)CC(F)(F)C3)c(F)c2)c1 [4/25] | < 100 | < 1000 |  | 
4 | [2H]C([2H])([2H])Oc1cccc(C23CCC(NC(=O)C4=C(C(=O)NOC)CCC4)(CC2)CC3)c1 [4/24] | > 10000 |  |  | 
5 | [2H]C([2H])([2H])Oc1cccc(-c2c(F)c(F)c(NC(=O)C3=C(C(=O)NS(C)(=O)=O)CC(F)(F)C3)c(F)c2F)c1 [1/12] | < 100 | < 1000 |  | 
6 | [2H]C([2H])([2H])Oc1cccc(-c2ccc(NC(=O)C3=C(C(=O)NOC)CCC3)c3c2CCC3)c1 [Example 8/1] | > 10000 | < 10000 |  | 
7 | [2H]C([2H])([2H])Oc1cccc(-c2cc(F)c(NC(=O)C3=C(C(=O)NS(=O)(=O)N(C)C)CCC3)c(F)c2)c1 [2/2] | > 10000 | 10000 to 25000 |  | 
8 | CONC(=O)C1=C(C(=O)Nc2c(F)cc(-c3cccc4ocnc34)cc2F)CCC1 [4/14] |  | < 10000 | 1000 to 10000 | 
9 | [2H]C([2H])([2H])Oc1cccc(-c2cc(F)c(NC(=O)C3=C(C(=O)NS(=O)(=O)NC)CCC3)c(F)c2)c1 [2/3] |  | 10000 to 25000 | 100 to 1000 | 
10 | [2H]C([2H])([2H])Oc1cccc(-c2c(F)c(F)c(NC(=O)c3cscc3C(=O)NS(C)(=O)=O)c(F)c2F)c1 [1/14] |  | > 50000 |  | 
11 | [2H]C([2H])([2H])Oc1cccc(-c2c(F)c(F)c(NC(=O)C3=C(C(=O)NS(C)(=O)=O)COC3)c(F)c2F)c1 [1/10] |  |  | 100 to 1000 | 
12 | [2H]C([2H])([2H])Oc1cccc(-c2cc(F)c(N(CC(=O)OC)C(=O)C3=C(C(=O)NOC)CCC3)c(F)c2)c1 [Example 14, Methyl N-(3,5-difluoro-3′-(methoxy-d3)-[1,1′-biphenyl]-4-yl)-N-(2-(methoxy-carbamoyl)cyclopent-1-ene-1-carbonyl)glycinate] |  |  | 1000 to 10000 | 
13 | [2H]C([2H])([2H])Oc1cccc(-c2ccc(NC(=O)C3=C(C(=O)NOC)CCC3)n3ccnc23)c1 [4/8] | > 10000 |  |  | 
14 | CONC(=O)C1=C(C(=O)Nc2c(F)cc(-c3cccc4c3OCO4)cc2F)CCC1 [4/13] |  | < 10000 | 1000 to 10000 | 
15 | [2H]C([2H])([2H])C([2H])([2H])Oc1cccc(-c2cc(F)c(NC(=O)C3=C(C(=O)NS(C)(=O)=O)CCC3)c(F)c2)c1 [1/5] | < 100 | < 10000 |  | 
16 | [2H]C([2H])([2H])Oc1cccc(-c2c(F)c(F)c(NC(=O)c3cc(C)sc3C(=O)NOC)c(F)c2F)c1 [Example 17-1, N2-Methoxy-5-methyl-N3-(2,3,5,6-tetrafluoro-3′-(methoxy-d3)-[1,1′-biphenyl]-4-yl)thiophene-2,3-dicarboxamide] |  | < 1000 | < 100 | 
17 | [2H]c1c([2H])c(F)c([2H])c(-c2c(F)c(F)c(NC(=O)C3=C(C(=O)NOC([2H])([2H])[2H])COC3)c(F)c2F)c1[2H] [5/2] |  | < 1000 | 100 to 1000 | 
18 | [2H]C([2H])([2H])Oc1cccc(-c2ccc(NC(=O)C3=C(C(=O)NOC)CCC3)c3ccccc23)c1 [4/12] | > 10000 | < 10000 |  | 
19 | [2H]C([2H])([2H])Oc1cccc(-c2c(F)c(F)c(NC(=O)c3cscc3C(=O)NOC)c(F)c2F)c1 [4/28] | < 100 | < 1000 |  | 
20 | [2H]C([2H])([2H])Oc1cccc(-c2cc(F)c(NC(=O)C3=C(C(=O)NOCC)CCC3)c(F)c2)c1 [4/9] |  | < 10000 | 1000 to 10000 | 

Row | Compound | IC50 [1, 2] [nM] | EC50 (SARS-CoV-2) [nM] | IC50 [1] [nM] | IC50 ([1]; matched pair comparison, read-out: DHODH IC50) [nM]
21 | [2H]C([2H])([2H])Oc1cccc(-c2c(F)c(F)c(NC(=O)c3scnc3C(=O)NOC)c(F)c2F)c1 [Example 16-2, N4-methoxy-N5-(2,3,5,6-tetrafluoro-3′-(methoxy-d3)-[1,1′-biphenyl]-4-yl)thiazole-4,5-dicarboxamide] |  |  | 100 to 1000 | 
22 | [2H]C([2H])([2H])Oc1cccc(-c2cc(F)c(NC(=O)C3=C(c4noc(=O)[nH]4)CCC3)c(F)c2)c1 [Example 3-2, N-(3,5-Difluoro-3′-(methoxy-d3)-[1,1′-biphenyl]-4-yl)-2-(5-oxo-4,5-dihydro-1,2,4-oxadiazol-3-yl)cyclopent-1-ene-1-carboxamide] | > 10000 | < 10000 |  | 
23 | [2H]C([2H])([2H])Oc1cccc(-c2ccc(NC(=O)C3=C(C(=O)NOC)CCC3)c(F)c2)c1 [5/8] |  |  | 1000 to 10000 | 
24 | [2H]C([2H])([2H])Oc1cccc(-c2cc(F)c(N(CCO)C(=O)C3=C(C(=O)NOC)CCC3)c(F)c2)c1 [Example 15, N1-(3,5-Difluoro-3′-(methoxy-d3)-[1,1′-biphenyl]-4-yl)-N1-(2-hydroxyethyl)-N2-methoxy-cyclopent-1-ene-1,2-dicarboxamide] | > 10000 |  |  | 
25 | [2H]C([2H])([2H])ONC(=O)C1=C(C(=O)Nc2c(F)c(F)c(-c3ccccc3OC([2H])([2H])[2H])c(F)c2F)COC1 [5/10] | < 100 |  |  | 
26 | [2H]C([2H])([2H])Oc1cccc(-c2ccc(NC(=O)C3=C(C(=O)NOCCO)CCC3)c(F)c2)c1 [5/7] | > 10000 |  |  | 
27 | [2H]C([2H])([2H])Oc1cccc(-c2c(F)c(F)c(NC(=O)C3=C(C(=O)NOCCO)CC(F)(F)C3)c(F)c2F)c1 [4/29] | < 100 | < 1000 |  | 
28 | [2H]C([2H])([2H])ONC(=O)C1=C(C(=O)Nc2c(F)cc(-c3cccc(OC([2H])([2H])[2H])c3)cc2F)CCC1 [4/4] |  | < 10000 |  | 
29 | [2H]C([2H])([2H])Oc1cccc(-c2ccc(NC(=O)C3=C(C(=O)NS(C)(=O)=O)CCC3)c(F)c2)c1 [1/11] |  |  | 100 to 1000 | 
30 | [2H]C([2H])([2H])Oc1cccc(-c2cc(F)c(NC(=O)C3=C(C(=O)NC#N)CCC3)c(F)c2)c1 [4/15] |  | 10000 to 25000 |  | 
31 | [2H]C([2H])([2H])Oc1ccccc1-c1c(F)c(F)c(NC(=O)C2=C(C(=O)NS(C)(=O)=O)CCC2)c(F)c1F [1/9] | < 100 |  |  | 
32 | [2H]C([2H])([2H])Oc1cccc(-c2c(F)c(F)c(NC(=O)c3sc(F)cc3C(=O)NOC)c(F)c2F)c1 [16/3] | < 100 |  |  | 
33 | [2H]c1c([2H])c(-c2cccc(OC([2H])([2H])[2H])c2)c([2H])c(C([2H])([2H])[2H])c1NC(=O)C1=C(C(=O)NS(C)(=O)=O)CCC1 [1/8] |  |  | 1000 to 10000 | 
34 | [2H]C([2H])([2H])Oc1cccc(-c2c(F)c(F)c(NC(=O)c3ncsc3C(=O)NOC)c(F)c2F)c1 [Example 16-1, N5-methoxy-N4-(2,3,5,6-tetrafluoro-3′-(methoxy-d3)-[1,1′-biphenyl]-4-yl)thiazole-4,5-dicarboxamide] | < 100 |  |  | 
35 | [2H]C([2H])([2H])ONC(=O)C1=C(C(=O)Nc2c(F)c(F)c(-c3cccc(OC([2H])(C([2H])([2H])[2H])C([2H])([2H])[2H])c3)c(F)c2F)COC1 [5/15] | < 100 |  |  | 
36 | [2H]C([2H])([2H])Oc1cccc(-c2c(F)c(F)c(NC(=O)c3cc(F)sc3C(=O)NOC)c(F)c2F)c1 [16/2] | < 100 |  |  | 
37 | [2H]C([2H])([2H])Oc1ccccc1-c1c(F)c(F)c(NC(=O)C2=C(C(=O)NOC)COC2)c(F)c1F [5/11] | < 100 |  |  | 
38 | CONC(=O)C1=C(C(=O)Nc2ccc(-c3cccc(OC)c3)cc2F)CCC1 [Example 4/33] |  |  | 1000 to 10000 | 2020
39 | [2H]C([2H])([2H])ONC(=O)C1=C(C(=O)Nc2c(F)c(F)c(-c3cc(F)cc(OC([2H])([2H])[2H])c3)c(F)c2F)COC1 [5/16] | < 100 |  |  | 
